Source: PubChem BioAssay (NCI)
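Dose response: 5 concentrations. Exposure: 48 h. Format: 96-well plates. Endpoint: linear interpolation; highest concentration if not reached. GI50 = concentration required for 50% inhibition of growth. The concentration for full growth arrest is given as TGI.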

Legend:
Experiment in all cases: NCI-60 cell line screen, 48 h
MDA-MB-468 breast = test system: MDA-MB-468 breast
786-0 renal = test system: 786-0 renal
SK-MEL-2 melanoma = test system: SK-MEL-2 melanoma
NCI-H23 lung = test system: NCI-H23 lung
SNB-75 CNS = test system: SNB-75 CNS
OVCAR-5 ovarian = test system: OVCAR-5 ovarian
UO-31 renal = test system: UO-31 renal
HCC-2998 colon = test system: HCC-2998 colon
HCT-15 colon = test system: HCT-15 colon
MDA-MB-231 breast = test system: MDA-MB-231 breast
MCF7 breast = test system: MCF7 breast
KM12 colon = test system: KM12 colon
NCI-H226 lung = test system: NCI-H226 lung
OVCAR-4 ovarian = test system: OVCAR-4 ovarian
OVCAR-3 ovarian = test system: OVCAR-3 ovarian
A498 renal = test system: A498 renal
SK-OV-3 ovarian = test system: SK-OV-3 ovarian
T-47D breast = test system: T-47D breast
EKVX NSCLC = test system: EKVX NSCLC
MALME-3M melanoma = test system: MALME-3M melanoma
SK-MEL-5 melanoma = test system: SK-MEL-5 melanoma
HS 578T breast = test system: HS 578T breast
OVCAR-8 ovarian = test system: OVCAR-8 ovarian
SW-620 colon = test system: SW-620 colon
SNB-19 CNS = test system: SNB-19 CNS
ACHN renal = test system: ACHN renal
TK-10 renal = test system: TK-10 renal
RXF 393 renal = test system: RXF 393 renal
DU-145 prostate = test system: DU-145 prostate

## Cc1cc(Br)c(NC(=O)c2c(-c3c(Cl)cccc3Cl)noc2C)c(Br)c1
MDA-MB-468 breast
  GI50: > 100 µM
  TGI: > 100 µM

## CNCc1ccc(-c2cc(-c3nc(-c4ccc(S(=O)(=O)C(C)C)cc4)cnc3N)on2)cc1
MDA-MB-468 breast
  GI50: 2.26 µM
  TGI: 20.3 µM

## COc1cccc2nc(Nc3cccc(NC(=O)c4ccc(CN5CCCN(C)CC5)c(C(F)(F)F)c4)c3)ccc12
786-0 renal
  GI50: 1.72 µM
  TGI: 3.35 µM
SK-MEL-2 melanoma
  GI50: 2.15 µM
  TGI: 4.93 µM
NCI-H23 lung
  GI50: 1.68 µM
  TGI: 3.07 µM
SNB-75 CNS
  GI50: 1.52 µM
  TGI: 7.97 µM
OVCAR-5 ovarian
  GI50: 1.71 µM
  TGI: 3.29 µM
UO-31 renal
  GI50: 1.74 µM
  TGI: 3.43 µM
HCC-2998 colon
  GI50: 1.71 µM
  TGI: 3.09 µM
HCT-15 colon
  GI50: 1.62 µM
  TGI: 3.03 µM
MDA-MB-231 breast
  GI50: 1.83 µM
  TGI: 3.4 µM
MDA-MB-468 breast
  GI50: 1.56 µM
  TGI: 2.98 µM
MCF7 breast
  GI50: 1.59 µM
  TGI: 3 µM
KM12 colon
  GI50: 2.49 µM
  TGI: 6.14 µM
NCI-H226 lung
  GI50: 1.94 µM
  TGI: 4.65 µM
OVCAR-4 ovarian
  GI50: 2.67 µM
  TGI: 10.7 µM
OVCAR-3 ovarian
  GI50: 2.14 µM
  TGI: 5.45 µM
A498 renal
  GI50: 13.5 µM
  TGI: 31.4 µM
SK-OV-3 ovarian
  GI50: 4.33 µM
  TGI: 21.3 µM
T-47D breast
  GI50: 5.43 µM
  TGI: 41.4 µM
EKVX NSCLC
  GI50: 1.72 µM
  TGI: 3.1 µM
MALME-3M melanoma
  GI50: 1.72 µM
  TGI: 3.12 µM
SK-MEL-5 melanoma
  GI50: 1.71 µM
  TGI: 3.08 µM
HS 578T breast
  GI50: 2.46 µM
  TGI: 8.09 µM
OVCAR-8 ovarian
  GI50: 2.03 µM
  TGI: 4.75 µM
SW-620 colon
  GI50: 1.75 µM
  TGI: 3.24 µM
SNB-19 CNS
  GI50: 1.72 µM
  TGI: 3.17 µM
ACHN renal
  GI50: 1.87 µM
  TGI: 3.62 µM
TK-10 renal
  GI50: 4.91 µM
  TGI: 19.3 µM
RXF 393 renal
  GI50: 1.66 µM
  TGI: 3.24 µM
DU-145 prostate
  GI50: 2.19 µM
  TGI: 4.91 µM

## C#Cc1ccc(-n2c(/C=C/c3ccc(O)cc3)nc3ncccc3c2=O)cc1
MDA-MB-468 breast
  GI50: 2.31 µM
  TGI: 7.08 µM

## CCN(CC)c1ccc2nc3ccc(=[N+](CC)CC)cc-3oc2c1
MDA-MB-468 breast
  GI50: 0.0631 µM
  TGI: 0.231 µM

## COc1ccc(/C=C2\CCC/C(=C\c3ccc(OC)c(OC)c3)C2=O)cc1OC
MDA-MB-468 breast
  GI50: 0.94 µM
  TGI: 5.47 µM

## COCCN(Cc1ccc(F)cc1)c1ccc(CO)c(Cl)c1
MDA-MB-468 breast
  GI50: 0.0406 µM
  TGI: 0.163 µM

## COc1ccccc1Oc1nccc(-c2c(-c3ccc(F)cc3)ncn2C2CCNCC2)n1
MDA-MB-468 breast
  GI50: 3.17 µM
  TGI: 14.3 µM

## COc1ccc(C(O)c2cc3c(N)c(C(=O)Nc4cccc5ccccc45)sc3nc2C)cc1 (centres undefined)
MDA-MB-468 breast
  GI50: 2.64 µM
  TGI: > 100 µM

## COc1ccc(-c2nc3ccc(Cc4ccc5nc(-c6ccc(OC)cc6)[nH]c5c4)cc3[nH]2)cc1
MDA-MB-468 breast
  GI50: 0.026 µM
  TGI: 0.155 µM

## COc1ccccc1C1c2cc3c(cc2OC2(OC)COC(=O)C12)OCO3 (centres undefined)
MDA-MB-468 breast
  GI50: 20.2 µM
  TGI: 95.4 µM

## CC(=O)Oc1ccc(C2=Cc3ccc(OC(C)=O)cc3OC2C)cc1 (centres undefined)
MDA-MB-468 breast
  GI50: 5.96 µM
  TGI: 51.4 µM

## COc1ccc(-c2cc(/C=C/C(=O)c3ccc(N)cc3)[nH]n2)cc1OC
MDA-MB-468 breast
  GI50: 1.55 µM
  TGI: 3.48 µM

## COc1cc2nnc3c4cccnc4[nH]c3c2cc1OC
MDA-MB-468 breast
  GI50: 0.225 µM
  TGI: 1.22 µM

## CCCCCC(=O)O[C@]1(C(C)=O)CCC2C3CCC4=CC(=O)CC[C@]4(C)C3CC[C@@]21C (some centres undefined)
MDA-MB-468 breast
  GI50: 1.73 µM
  TGI: 6.79 µM

## CN1CCN(c2c(F)cc(NC3=C(Cl)C(=O)c4ncccc4C3=O)cc2F)CC1
MDA-MB-468 breast
  GI50: 1.36 µM
  TGI: 3.21 µM

## O=C(Nc1ccc(OC(F)(F)Cl)cc1)c1cnc(N2CC[C@@H](O)C2)c(-c2ccn[nH]2)c1
MDA-MB-468 breast
  GI50: 4.89 µM
  TGI: 23.1 µM

## Cc1cnc(C(=O)NNc2nc3sc4c(c3c(=O)[nH]2)C(C)CCC4)cn1 (centres undefined)
MDA-MB-468 breast
  GI50: 1.81 µM
  TGI: 6.08 µM

## COc1ccc2c(c1)c(/C=N/Nc1ccnc3cc(Cl)ccc13)cn2C
MDA-MB-468 breast
  GI50: 0.217 µM
  TGI: 0.456 µM

## O=C1c2cc3c(cc2-c2c1c1ccc(Cl)cc1c(=O)n2C[C@H](O)CO)OCO3
MDA-MB-468 breast
  GI50: 0.0174 µM
  TGI: 0.0553 µM

## Nc1nc(=S)c2ncn(C3OC(COP(=O)(O)O)C(O)C3O)c2[nH]1 (centres undefined)
MDA-MB-468 breast
  GI50: 0.478 µM
  TGI: 6.3 µM

## O=C(COc1ccc(/C=C2\Oc3ccccc3C2=O)cc1)Nc1nc2ccccc2s1
MDA-MB-468 breast
  GI50: 0.487 µM
  TGI: 75.2 µM

## Cc1cccc(Cn2cc(CO)c3cnccc32)c1
MDA-MB-468 breast
  GI50: 6.34 µM
  TGI: 43.3 µM

## CC[C@H](C)[C@H](NC(=O)[C@H]1CCCCN1C)C(=O)N(C)[C@H](C[C@@H](OC(C)=O)c1nc(C(=O)NC23CC(C(=O)OC)(C2)C3)cs1)C(C)C
MDA-MB-468 breast
  GI50: 0.000292 µM
  TGI: 0.0714 µM

## COc1ccc(-c2[nH]c3ccc(OC)cc3c2C=C(C#N)C#N)cc1
MDA-MB-468 breast
  GI50: 0.494 µM
  TGI: > 100 µM

## COc1cc(-c2nccc3[nH]c(-c4ccc5cc[nH]c5c4)nc23)cc(OC)c1OC
MDA-MB-468 breast
  GI50: 0.0176 µM
  TGI: 1.56 µM

## CCC(c1ccccc1)c1noc(CCN(CC)CC)n1 (centres undefined)
MDA-MB-468 breast
  GI50: 2.46 µM
  TGI: 8.05 µM

## Cn1ccnc1C(=O)/C=C/C=C/c1ccc(C(=O)Nc2ccc(F)cc2)cc1
MDA-MB-468 breast
  GI50: 1.51 µM
  TGI: 10.5 µM

## Fc1ccc(NC(c2ccc(F)cc2)C2CCN(CCCCc3ccccc3)CC2)cc1 (centres undefined)
MDA-MB-468 breast
  GI50: 1.72 µM
  TGI: 3.43 µM

## Nc1nccc(-c2c(-c3ccc(F)cc3)nn3cc(C(F)(F)F)ccc23)n1
MDA-MB-468 breast
  GI50: > 25 µM
  TGI: > 25 µM

## ClCCOCCn1cnc2c(Cl)nc(Cl)nc21
MDA-MB-468 breast
  GI50: 3.16 µM
  TGI: 25 µM

## CCc1ccc(Nc2cc(C)c3ccc(O)cc3n2)cc1
MDA-MB-468 breast
  GI50: 3.57 µM
  TGI: 12.8 µM

## CC(=O)NC1C(O[C@H]2C[C@H]3[C@@H]4CC=C5C[C@@H](O)CC[C@]5(C)[C@H]4CC[C@]3(C)[C@H]2[C@H](C)C(=O)CCC(C)C)OCC(O)C1O (some centres undefined)
MDA-MB-468 breast
  GI50: 3.34 µM
  TGI: 10.4 µM

## Cc1cc(Cl)nc(N(CCNc2ccnc3cc(Cl)ccc23)Cc2ccco2)n1
MDA-MB-468 breast
  GI50: 1.62 µM
  TGI: 3.46 µM

## CCCCCCCCCCCCCCNC(=O)Nc1ccc(Cl)c(Cl)c1
MDA-MB-468 breast
  GI50: 2.82 µM
  TGI: 9.82 µM

## CCNC(=O)N1CCc2cc(OC)c(OCCc3ccc(OC)cc3)cc2C1c1ccc(Cl)cc1C (centres undefined)
MDA-MB-468 breast
  GI50: 2.01 µM
  TGI: 6.43 µM

## COc1cc(/C=C/c2cc(/C=C/c3ccc(O)c(OC)c3)n(C(=O)c3ccccc3Br)n2)ccc1O
MDA-MB-468 breast
  GI50: 2.24 µM
  TGI: 5.81 µM

## S=C1SCN(Cc2ccccc2)CN1Cc1ccco1
MDA-MB-468 breast
  GI50: 1.04 µM
  TGI: 13.5 µM

## CCSCC1CC(O)(c2ccccc2)C(c2ccccc2)C(c2ccc(F)cc2)O1 (centres undefined)
MDA-MB-468 breast
  GI50: 2.94 µM
  TGI: 10.4 µM

## CC(C)[C@@H]1CC[C@]2(CO2)[C@@H]2C(=O)OCC(C(=O)O)=C[C@H]21
MDA-MB-468 breast
  GI50: 0.443 µM
  TGI: > 27.2 µM

## COc1ccccc1CNCCN1C(=O)c2ccc3c4c(ccc(c24)C1=O)C(=O)N(CCNCc1ccccc1OC)C3=O
MDA-MB-468 breast
  GI50: 0.426 µM
  TGI: 0.893 µM

## Clc1ccc2oc3c(NCCCn4ccnc4)c4ccccc4nc3c2c1
MDA-MB-468 breast
  GI50: 14.7 µM
  TGI: 69.2 µM

## COCCOC1=C(Cl)C(=O)c2ccccc2C1=O
MDA-MB-468 breast
  GI50: 1.59 µM
  TGI: 3.22 µM

## CCCCS(=O)c1sc2nc(-c3cccs3)cc(-c3ccccc3)c2c1N (centres undefined)
MDA-MB-468 breast
  GI50: 9.93 µM
  TGI: 67.3 µM
